According to PubChem BioAssay (NCI):
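Step 1: Grow cells in 96-well plates. Step 2: Expose to compound for 48 hours at 5 concentrations. Step 3: Interpolate endpoints linearly; if unreached, use highest concentration. TGI: concentration producing complete growth inhibition.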

Legend:
Assay in all cases: growth of human tumour cells (NCI), 48 h
MOLT-4 leukemia = test system: MOLT-4 leukemia
OVCAR-5 ovarian = test system: OVCAR-5 ovarian
SK-MEL-28 melanoma = test system: SK-MEL-28 melanoma
NCI-H522 lung = test system: NCI-H522 lung
MDA-MB-435 = test system: MDA-MB-435
NCI-H460 lung = test system: NCI-H460 lung
UO-31 renal = test system: UO-31 renal
OVCAR-4 ovarian = test system: OVCAR-4 ovarian
SK-MEL-5 melanoma = test system: SK-MEL-5 melanoma
NCI-H226 lung = test system: NCI-H226 lung
786-0 renal = test system: 786-0 renal
SNB-75 CNS = test system: SNB-75 CNS
HCT-116 colon = test system: HCT-116 colon
SR leukemia = test system: SR leukemia
U251 CNS = test system: U251 CNS
COLO 205 colon = test system: COLO 205 colon
BT-549 breast = test system: BT-549 breast
UACC-62 melanoma = test system: UACC-62 melanoma

Row | Compound | TGI (MOLT-4 leukemia) | TGI (OVCAR-5 ovarian) | TGI (SK-MEL-28 melanoma) | TGI (NCI-H522 lung) | TGI (MDA-MB-435) | TGI (NCI-H460 lung) | TGI (UO-31 renal) | TGI (OVCAR-4 ovarian) | TGI (SK-MEL-5 melanoma) | TGI (NCI-H226 lung) | TGI (786-0 renal) | TGI (SNB-75 CNS) | TGI (HCT-116 colon) | TGI (SR leukemia) | TGI (U251 CNS) | TGI (COLO 205 colon) | TGI (BT-549 breast) | TGI (UACC-62 melanoma)
1 | COc1cc(CNc2nc3ccccc3nc2-c2cccs2)cc(OC)c1OC | 29.6 µM | > 100 µM | > 100 µM | 38.7 µM | > 100 µM | 37.5 µM | 25 µM | 23.4 µM | 28.8 µM | 97.7 µM | > 100 µM | > 100 µM | > 100 µM | > 100 µM | > 100 µM | > 100 µM | 12.9 µM | 62.5 µM
2 | CC1=Nc2nc3ccccc3n2C(C)(C)C1 | > 100 µM | > 100 µM |  | > 100 µM | > 100 µM | > 100 µM | > 100 µM | > 100 µM | > 100 µM | > 100 µM | > 100 µM | > 100 µM | > 100 µM | > 100 µM | > 100 µM | > 100 µM | > 100 µM | > 100 µM
3 | Cn1c(=O)nc2n(CCO)ccnc-2c1=O | > 100 µM | > 100 µM | > 100 µM | > 100 µM | > 100 µM | > 100 µM | > 100 µM | > 100 µM | > 100 µM | > 100 µM | > 100 µM | > 100 µM | > 100 µM | > 100 µM | > 100 µM | > 100 µM | > 100 µM | > 100 µM
4 | Oc1ccc2ccccc2c1-c1c(Nc2ccccc2)ccc2ccccc12 | 46.4 µM | > 50.1 µM | 27.4 µM | 29.6 µM | 20.2 µM | 39.9 µM | 29.2 µM | 25.4 µM | 29 µM | 36.1 µM | 34.2 µM | 31.9 µM | 33.5 µM | 51.6 µM | 52 µM | 38 µM | 30.1 µM | 33.6 µM
5 | O=C(N1CCOCC1)C1(c2ccccc2)CCNCC1 | > 100 µM | > 100 µM | > 100 µM | > 100 µM | > 100 µM | > 100 µM | > 100 µM | > 100 µM | > 100 µM | > 100 µM | > 100 µM | > 100 µM | > 100 µM | > 100 µM | > 100 µM | > 100 µM | > 100 µM | > 100 µM
6 | COc1ccc(-c2nc(N(C)C)c3ccccc3n2)cc1 | 15.8 µM | 62.2 µM | 33.7 µM | 27.8 µM | 33.8 µM | 26.9 µM | 15.8 µM | > 100 µM | 26.2 µM | 21.8 µM | 32.3 µM | 40.4 µM | 17.4 µM | 29.1 µM | 80 µM | 29.6 µM | 43.5 µM | 37.6 µM
7 | O=C1NCC2(CCN(Cc3ccccc3)CC2)N1 | > 100 µM | > 100 µM | > 100 µM | > 100 µM | > 100 µM | > 100 µM | > 100 µM | > 100 µM | > 100 µM | > 100 µM | > 100 µM | > 100 µM | > 100 µM | > 100 µM | > 100 µM | > 100 µM | > 100 µM | > 100 µM
8 | Brc1ccccc1/C=C\C1(c2ccccc2)OCCO1 | 9.23 µM | 29.5 µM | 46.9 µM | 22.6 µM | 24.6 µM | 34.2 µM | 20 µM | 14.8 µM | 29.1 µM | 38.2 µM | 24.3 µM | 28.6 µM | 11.9 µM | 8.33 µM | 18.4 µM | 37.7 µM | 39 µM | 28 µM
9 | COc1ccc(-c2nc(N)c(C#N)c3c2CCSc2ccc(C)cc2-3)cc1OC | 25.1 µM | > 100 µM | > 81.8 µM | > 100 µM | > 100 µM | > 61.5 µM | 27.2 µM | > 93.8 µM | 25.2 µM | > 70.9 µM | > 61.1 µM | 71.3 µM | 30.7 µM | 18.1 µM | > 100 µM | 26.6 µM | 70.8 µM | 47.1 µM
10 | CC(C)=CCC[C@](C)(O)[C@H]1CC[C@]2(C)[C@@H]1[C@H](O)C[C@@H]1[C@@]3(C)CC[C@H](O[C@@H]4O[C@H](CO)[C@@H](O)[C@H](O)[C@H]4O)C(C)(C)[C@@H]3CC[C@]12C | 34.8 µM | 49.3 µM | 34.8 µM | 31.9 µM | 36.1 µM | 30.2 µM | 31.1 µM | 38.1 µM | 32.1 µM | 34.6 µM | 36 µM | 33.5 µM | 41.2 µM | 28.8 µM | 35.2 µM | 37.3 µM | 34.3 µM | 31 µM
11 | CC(=O)c1c2c(cc3c1CC1(Cc4cc5c(cc4C1=O)CCC5)C3)CCC2 (stereo not given) | > 100 µM | > 100 µM | > 100 µM | > 100 µM | > 100 µM | > 100 µM | > 100 µM | > 100 µM | > 69.4 µM | > 100 µM | > 100 µM | > 100 µM | > 100 µM | > 100 µM | > 100 µM | > 100 µM | > 100 µM | > 100 µM
12 | NCCCCC(N)C(=O)N1CCN(c2nc(N3CCCC3)c3nc(Cl)c(NCc4ccccc4)nc3n2)CC1 (stereo not given) | 50.6 µM | 33.9 µM | 40.5 µM | 42.1 µM | 46.6 µM | 34.4 µM | 32.9 µM | 50.8 µM | 34.1 µM | 45.6 µM | 33.1 µM | 32.9 µM | 32.1 µM | 44.9 µM | 36.5 µM | 33.1 µM | 34.4 µM | 36.7 µM
